Columns and labels:
Assay type in all cases: in vivo, rat
[1] = tested on: MetS animals (high-fructose high-salt diet); test: Invasive real-time cardiac contractility recording in metabolic syndrome rats; conditions: vs MetS; for Cardiac contractility (contractility index): oral 25 mg/kg/day in the last 6 weeks of 12 weeks diet
Description: (§1) Rats used in this study were male Wistar 6-8 weeks old rats weighing 180-200 g (King Fand Medical Research Center, King Abdulaziz University, Jeddah, Saudi Arabia). Clear polypropylene cages were used to house 4 rats each and included access to purified water and standard rodent pellets. Constant animal housing conditions applied constituting of alternating 12 hours light and dark, a temperature of 22±3° C., a relative humidity of 50-60% and adequate ventilation. Experimental protocol was approved by the Research Ethical Committee, Faculty of Pharmacy, King Abdulaziz University, Jeddah, Saudi Arabia and was conducted in accordance with the Saudi Arabia Research Bioethics and Regulations.
Animals were randomly divided into 5 experimental groups; Control (C) rats received regular tap water and food pellets. MetS group (M) in which fructose (10%) was added to drinking water and NaCl (3%) to food pellets. This regimen began in 6-week old rats and continued for 12 weeks. Standard quercetin group (MQ) administered 25 mg/kg quercetin suspension every day in the last 6 weeks of fructose and salt administration. Nano formula vehicle group (MN) received the same volumes of SNEDDS ingredients (Pumpkin seed oil, D-α-tocopheryl polyethylene glycol succinate (TPGS) and PEG 200) without quercetin every day in the last 6 weeks of fructose and salt administration. The nanoformula group (MNQ) administered 25 mg/kg of quercetin in the form of nano-pharmaceutical formulation every day in the last 6 weeks of fructose and salt administration.
Invasive real-time recording of cardiac contractility was carried out according to the method described in previous publication from our laboratories (El-Bassossy et al., 2017). After urethane anaethesia, animals were placed on controlled heating pads, and body temperature, measured via a rectal probe, was maintained at 37° C. A microtip pressure transducer (SPR-320; Millar Instruments, Houston, Tex., USA) was inserted into the right carotid artery and advanced into the left ventricle under pressure control. After stabilization for 5 min, the signals were continuously recorded at a sampling rate of 1000 s−1. The microtip catheter was connected to a PowerLab Data Interface Module connected to a PC running LabChart professional software (version 7.3; ADI Instruments, Bella Vista, Australia) containing a blood pressure module.

[2] = tested on: MetS animals (high-fructose high-salt diet); test: Cardiac conductivity (surface ECG) recording in metabolic syndrome rats; conditions: oral 25 mg/kg/day in the last 6 weeks, vs MetS, p<0.05
Description: Rats used in this study were male Wistar 6-8 weeks old rats weighing 180-200 g (King Fand Medical Research Center, King Abdulaziz University, Jeddah, Saudi Arabia). Clear polypropylene cages were used to house 4 rats each and included access to purified water and standard rodent pellets. Constant animal housing conditions applied constituting of alternating 12 hours light and dark, a temperature of 22±3° C., a relative humidity of 50-60% and adequate ventilation. Experimental protocol was approved by the Research Ethical Committee, Faculty of Pharmacy, King Abdulaziz University, Jeddah, Saudi Arabia and was conducted in accordance with the Saudi Arabia Research Bioethics and Regulations. Animals were randomly divided into 5 experimental groups; Control (C) rats received regular tap water and food pellets. MetS group (M) in which fructose (10%) was added to drinking water and NaCl (3%) to food pellets. This regimen began in 6-week old rats and continued for 12 weeks. Standard quercetin group (MQ) administered 25 mg/kg quercetin suspension every day in the last 6 weeks of fructose and salt administration. […] The standard limb lead II of the surface ECG was recorded by the Powerlab system (ADI Instruments) connected to a PC running LabChart professional software (version 7.3) containing an ECG module, which detects different components of the ECG. […]

[3] = tested on: MetS animals (high-fructose high-salt diet); test: Blood pressure in metabolic syndrome rats; conditions: oral 25 mg/kg/day in the last 6 weeks, vs MetS, p<0.05
Description: as §1
Animals were randomly divided into 5 experimental groups; Control (C) rats received regular tap water and food pellets. MetS group (M) in which fructose (10%) was added to drinking water and NaCl (3%) to food pellets. […]
Invasive real-time recording of cardiac contractility was carried out according to the method described in previous publication from our laboratories (El-Bassossy et al., 2017). After urethane anaethesia, animals were placed on controlled heating pads, and body temperature, measured via a rectal probe, was maintained at 37° C. […] After stabilization for 5 min, the signals were continuously recorded at a sampling rate of 1000 s−1. […]

[4] = tested on: MetS animals (high-fructose high-salt diet); test: Overall protection from cardiovascular complication of metabolic syndrome in rats; conditions: oral 25 mg/kg/day in the last 6 weeks
Description: Rats used in this study were male Wistar 6-8 weeks old rats weighing 180-200 g (King Fand Medical Research Center, King Abdulaziz University, Jeddah, Saudi Arabia). Clear polypropylene cages were used to house 4 rats each and included access to purified water and standard rodent pellets. Constant animal housing conditions applied constituting of alternating 12 hours light and dark, a temperature of 22±3° C., a relative humidity of 50-60% and adequate ventilation. Experimental protocol was approved by the Research Ethical Committee, Faculty of Pharmacy, King Abdulaziz University, Jeddah, Saudi Arabia and was conducted in accordance with the Saudi Arabia Research Bioethics and Regulations. Animals were randomly divided into 5 experimental groups; Control (C) rats received regular tap water and food pellets. MetS group (M) in which fructose (10%) was added to drinking water and NaCl (3%) to food pellets. This regimen began in 6-week old rats and continued for 12 weeks. Standard quercetin group (MQ) administered 25 mg/kg quercetin suspension every day in the last 6 weeks of fructose and salt administration. Nano formula vehicle group (MN) received the same volumes of SNEDDS ingredients (Pumpkin seed oil, D-α-tocopheryl polyethylene glycol succinate (TPGS) and PEG 200) without quercetin every day in the last 6 weeks of fructose and salt administration. […]

[5] = oral 25 mg/kg/day in the last 6 weeks, p<0.05

O=c1c(O)c(-c2ccc(O)c(O)c2)oc2cc(O)cc(O)c12 [regular size quercetin, quercetin]
Cardiac contractility (contractility index) ([1]; p<0.05, 25 mg/kg/day): did not significantly affect
Cardiac contractility (contractility index) ([1]; p<0.05, listed as suspension of quercetin, 25 mg/kg/day): failed to affect
Diastolic function (−dP/dt, dp/dt min) [1, 5]: did not significantly affect
Left ventricular systolic function (dP/dt max) [1, 5]: did not significantly affect
JT interval [2]: did not significantly improve
QTc interval [2]: did not significantly improve
Diastolic blood pressure (DBP) [3]: partially reduced
Systolic blood pressure (SBP) [3]: partially reduced
Cardiovascular function / cardioprotective effect (overall) [4]: failed to completely protect

— patent US10653666B1, “Cardioprotective nano-pharmaceutical formulation” (King Abdulaziz University, priority 2020, dated 2020)
